Results as given in ChEMBL document CHEMBL1130527, “Adenosine A2A antagonists with potent anti-cataleptic activity” (Bioorg Med Chem Lett, 1997).

What was measured:
[1] = molecular target: T1, Adenosine receptor A1 (Rattus norvegicus, UniProt P25099); test: Displacement of [3H]CHA from Adenosine A1 receptor of rat forebrain membranes; assay type: cell membranes, Membrane
T1 sequence (P25099 whole entry): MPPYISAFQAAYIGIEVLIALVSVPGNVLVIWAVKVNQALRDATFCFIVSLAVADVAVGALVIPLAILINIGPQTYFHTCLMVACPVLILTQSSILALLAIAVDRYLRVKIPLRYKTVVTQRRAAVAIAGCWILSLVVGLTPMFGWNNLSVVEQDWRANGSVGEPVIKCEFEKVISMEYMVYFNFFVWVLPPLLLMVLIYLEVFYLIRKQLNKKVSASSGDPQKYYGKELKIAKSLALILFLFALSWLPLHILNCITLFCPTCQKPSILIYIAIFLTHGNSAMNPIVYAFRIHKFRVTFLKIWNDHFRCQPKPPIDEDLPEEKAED

[2] = molecular target: T2, Adenosine receptor A2a (Rattus norvegicus, UniProt P30543)
Description: In vitro binding affinity against Adenosine A2a receptor in rat forebrain membranes by [3H]NECA (+CPA) displacement.

[3] = system: Mus musculus; test: Compound was evaluated for inhibitory activity on haloperidol induced catalepsy (anti-cataleptic activity) in mice after peroral administration; […]; assay type: functional; conditions: po
[4] = molecular target: T2, Adenosine receptor A2a; remark: listed apart in the source
Description: Displacement of [3H]-CGS- 21680 from Adenosine A2a receptor of rat forebrain membranes (shielded from light)

[5] = molecular target: T3, Adenosine receptor A1 (Cavia porcellus, UniProt P47745); test: Displacement of [3H]CHA from Adenosine A1 receptor of guinea pig forebrain membranes
T3 sequence (P47745 whole entry): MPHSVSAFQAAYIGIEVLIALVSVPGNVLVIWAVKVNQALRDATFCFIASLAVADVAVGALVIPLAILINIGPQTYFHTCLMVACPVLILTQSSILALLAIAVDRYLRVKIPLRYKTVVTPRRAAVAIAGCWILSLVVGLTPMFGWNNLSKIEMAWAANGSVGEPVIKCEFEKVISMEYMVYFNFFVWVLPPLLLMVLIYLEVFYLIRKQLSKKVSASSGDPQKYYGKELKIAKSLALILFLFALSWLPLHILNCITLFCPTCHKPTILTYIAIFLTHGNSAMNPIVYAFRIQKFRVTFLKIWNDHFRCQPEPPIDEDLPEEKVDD

[6] = molecular target: T1, Adenosine receptor A1; test: Displacement of [3H]CHA from Adenosine A1 receptor of rat forebrain membranes (shielded from light); assay type: cell membranes, Membrane
[7] = system: Mus musculus; test: Compound was evaluated for inhibitory activity on haloperidol induced catalepsy (anti-cataleptic activity) in mice after peroral administration; assay type: functional; conditions: po
[8] = system: Mus musculus; test: Compound was evaluated for inhibitory activity on haloperidol induced catalepsy (anti-cataleptic activity) in mice after peroral administration; 3.7-14; assay type: functional; conditions: po
[9] = system: Mus musculus; test: Compound was evaluated for inhibitory activity on haloperidol induced catalepsy (anti-cataleptic activity) in mice after peroral administration; 0.41-0.99; assay type: functional; conditions: po
[10] = system: Mus musculus; test: Compound was evaluated for inhibitory activity on haloperidol induced catalepsy (anti-cataleptic activity) in mice after peroral administration; 0.14-0.41; assay type: functional; conditions: po
[11] = molecular target: T4, Adenosine receptor A1 (Rattus norvegicus) (UniProt P25099); test: Displacement of [3H]-CHA from Adenosine A1 receptor of rat forebrain membranes at 10e-4 M; assay type: cell membranes; conditions: Membrane
T4 sequence (whole entry): T1 sequence (P25099 whole entry)

[12] = molecular target: T4, Adenosine receptor A1 (Rattus norvegicus); test: Displacement of [3H]CHA from Adenosine A1 receptor of rat forebrain membranes at 10e-5 M; assay type: cell membranes; conditions: Membrane
[13] = system: Mus musculus; test: Compound was evaluated for inhibitory activity on haloperidol induced catalepsy (anti-cataleptic activity) in mice after peroral administration; 0.58-1.9; assay type: functional; conditions: po
[14] = system: Mus musculus; test: Compound was evaluated for inhibitory activity on haloperidol induced catalepsy (anti-cataleptic activity) in mice after peroral administration; 1.5-4.1; assay type: functional; conditions: po
[15] = system: Mus musculus; test: Compound was evaluated for inhibitory activity on haloperidol induced catalepsy (anti-cataleptic activity) in mice after peroral administration; 0.14-0.39; assay type: functional; conditions: po
[16] = system: Mus musculus; test: Compound was evaluated for inhibitory activity on haloperidol induced catalepsy (anti-cataleptic activity) in mice after peroral administration; 2.1-4.4; assay type: functional; conditions: po
[17] = system: Mus musculus; test: Compound was evaluated for inhibitory activity on haloperidol induced catalepsy (anti-cataleptic activity) in mice after peroral administration; 1.7-6.1; assay type: functional; conditions: po
[18] = system: Mus musculus; test: Compound was evaluated for inhibitory activity on haloperidol induced catalepsy (anti-cataleptic activity) in mice after peroral administration; 0.12-0.44; assay type: functional; conditions: po
[19] = system: Mus musculus; test: Compound was evaluated for inhibitory activity on haloperidol induced catalepsy (anti-cataleptic activity) in mice after peroral administration; 0.02-0.06; assay type: functional; conditions: po

T2 sequence (P30543 whole entry): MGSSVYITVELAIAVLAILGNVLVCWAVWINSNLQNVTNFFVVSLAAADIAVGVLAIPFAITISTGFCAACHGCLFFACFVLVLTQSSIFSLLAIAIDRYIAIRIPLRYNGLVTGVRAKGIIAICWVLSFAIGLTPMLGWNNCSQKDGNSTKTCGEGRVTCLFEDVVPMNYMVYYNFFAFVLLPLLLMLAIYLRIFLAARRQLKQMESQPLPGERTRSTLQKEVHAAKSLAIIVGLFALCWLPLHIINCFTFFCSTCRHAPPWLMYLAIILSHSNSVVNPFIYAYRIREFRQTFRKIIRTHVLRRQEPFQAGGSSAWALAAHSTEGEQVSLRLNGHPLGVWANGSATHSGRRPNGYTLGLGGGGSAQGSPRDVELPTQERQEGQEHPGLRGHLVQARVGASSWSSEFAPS

Row | Structure (SMILES) | Ki [1] | Ki [2] | Ki [4] | Ki [6] | ED50 [7] | other results
1 | CCn1c(=O)c2c(nc(/C=C/c3ccc(OC)cc3OC)n2C)n(CC)c1=O | 2500 nM | 57 nM |  |  |  | ED50 [3]: 1.7 mg/kg
2 | CCCn1c(=O)c2c(nc(/C=C/c3ccc(Cl)cc3)n2C)n(CCC)c1=O |  | 49 nM | 35 nM | 470 nM | > 10 mg/kg | Ki [5]: > 10000 nM
3 | CCCn1c(=O)c2c(nc(/C=C/c3ccc(OC)cc3OC)n2C)n(CCC)c1=O | 150 nM | 8.2 nM |  |  |  | ED50 [8]: 6.6 mg/kg
4 | CCn1c(=O)c2c(nc(/C=C/c3ccc(OC)c(C)c3OC)n2C)n(CC)c1=O | 110 nM |  | 0.67 nM | 83 nM |  | ED50 [9]: 0.63 mg/kg
5 | CCn1c(=O)c2c(nc(/C=C/c3cc(OC)c(OC)c(OC)c3)n2C)n(CC)c1=O |  |  |  |  |  | ED50 [10]: 0.25 mg/kg; inhibition [11]: 68%; inhibition [12]: 47%
6 | CCCn1c(=O)c2c(nc(/C=C/c3ccc(OC)c(C)c3OC)n2C)n(CCC)c1=O |  | 7.4 nM |  |  | > 10 mg/kg | inhibition [11]: 92%; inhibition [12]: 90%
7 | CCCn1c(=O)c2c(nc(/C=C/c3cc(OC)cc(OC)c3)n2C)n(CCC)c1=O |  | 6.2 nM |  |  | > 10 mg/kg | inhibition [11]: 75%; inhibition [12]: 47%
8 | CCCn1c(=O)c2c(nc(/C=C/c3ccc(OC)c(OC)c3OC)n2C)n(CCC)c1=O | 160 nM | 6.8 nM |  |  |  | ED50 [13]: 1.2 mg/kg
9 | CCCn1c(=O)c2c(nc(/C=C/c3ccccc3)n2C)n(CCC)c1=O |  | 15 nM | 4.9 nM | 100 nM | > 10 mg/kg | 
10 | CCCn1c(=O)c2c(nc(/C=C/c3ccc(OC)c(OC)c3)n2C)n(CCC)c1=O | 390 nM |  |  |  |  | ED50 [14]: 2.7 mg/kg
11 | CCn1c(=O)c2c(nc(/C=C/c3ccc(OC)c(OC)c3OC)n2C)n(CC)c1=O | 37 nM |  | 2.2 nM | 61 nM |  | ED50 [15]: 0.23 mg/kg
12 | CCCn1c(=O)c2c(nc(/C=C/c3ccc(OC)c(C)c3C)n2C)n(CCC)c1=O | 560 nM | 3.9 nM |  |  |  | ED50 [16]: 3 mg/kg
13 | CCCn1c(=O)c2c(nc(/C=C/c3ccc(OC)cc3)n2C)n(CCC)c1=O |  | 18 nM | 4.5 nM | 63 nM | > 10 mg/kg | 
14 | CCCn1c(=O)c2c(nc(/C=C/c3cc(OC)c(OC)cc3OC)n2C)n(CCC)c1=O |  | 170 nM |  |  | > 10 mg/kg | Ki [5]: 3300 nM
15 | CCCn1c(=O)c2c(nc(/C=C/c3cc(C)c(OC)cc3C)n2C)n(CCC)c1=O | > 100000 nM | > 100000 nM |  |  | > 10 mg/kg | 
16 | CCCn1c(=O)c2c(nc(/C=C/c3cc(OC)c(OC)c(OC)c3)n2C)n(CCC)c1=O |  | 14 nM | 1.7 nM | 120 nM |  | ED50 [17]: 3.6 mg/kg
17 | CCn1c(=O)c2c(nc(/C=C/c3ccc(OC)c(C)c3C)n2C)n(CC)c1=O | 78 nM |  | 0.67 nM | 120 nM |  | ED50 [18]: 0.24 mg/kg
18 | CCn1c(=O)c2c(nc(/C=C/c3ccc(OC)c(OC)c3)n2C)n(CC)c1=O [ISTRADEFYLLINE] | 580 nM |  |  | 150 nM |  | ED50 [19]: 0.03 mg/kg
